Assay results: patent US20130072430A1, “METHODS FOR TREATMENT OR PROPHYLAXIS OF KIDNEY OR LIVER DYSFUNCTION” (NPS PHARMACEUTICALS, INC., priority 2010, published 2013)

System: Human patients with short bowel syndrome
Experiment: Example 1: kidney diagnostic biomarkers (urea nitrogen, creatinine, GFR) in short bowel syndrome patients, every four weeks for 24 weeks
Assay type: in vivo
Parameters: CREATININE (RATE BLANKED) Change from Baseline, Median / GFR, Median / GFR Change from Baseline, Median / UREA NITROGEN, Median / UREA NITROGEN Change from Baseline, Median: unit not given here
Conditions: for CREATININE (RATE BLANKED), Median: unit assumed
Procedure: Human patients with short bowel syndrome were divided into three groups: a control group (16 total individuals) to receive placebo, an experimental group (35 total individuals) to receive teduglutide at 0.05 mg/kg/day throughout the study, and an experimental group (32 total individuals) to receive teduglutide at 0.1 mg/kg/day throughout the study. Patients were treated by subcutaneous injection of placebo or the appropriate dose of teduglutide. As individuals with short bowel syndrome are likely to experience associated liver and kidney disease, known biomarkers of liver and kidney function were monitored every four weeks, for 24 weeks. The liver biomarkers tested included total bilirubin, ALT and AST and ALP. The kidney biomarkers tested included urea nitrogen, creatinine and GFR. Before administration of placebo or teduglutide, diagnostic biomarker levels were tested to establish a baseline for each individual.
To visualize the effect of GLP-2 on the levels of the diagnostic biomarkers, the average change from baseline was calculated for the placebo and teduglutide treated groups for each visit after a baseline was established. The average change from baseline of each group is depicted in FIGS. […]. The numerical figures for each diaanostic biomarker at each time point are depicted in Table 1.
The raw data for this sorting is reproduced in Table 2 below.

CC[C@H](C)[C@H](NC(=O)[C@H](Cc1ccccc1)NC(=O)[C@H](CC(=O)O)NC(=O)[C@H](CCCNC(=N)N)NC(=O)[C@H](C)NC(=O)[C@H](C)NC(=O)[C@H](CC(C)C)NC(=O)[C@H](CC(N)=O)NC(=O)[C@H](CC(=O)O)NC(=O)[C@H](CC(C)C)NC(=O)[C@@H](NC(=O)[C@@H](NC(=O)[C@H](CC(N)=O)NC(=O)[C@H](CCSC)NC(=O)[C@H](CCC(=O)O)NC(=O)[C@H](CC(=O)O)NC(=O)[C@H](CO)NC(=O)[C@H](Cc1ccccc1)NC(=O)[C@H](CO)NC(=O)CNC(=O)[C@H](CC(=O)O)NC(=O)CNC(=O)[C@@H](N)Cc1c[nH]cn1)[C@@H](C)O)[C@@H](C)CC)C(=O)N[C@@H](CC(N)=O)C(=O)N[C@@H](Cc1c[nH]c2ccccc12)C(=O)N[C@@H](CC(C)C)C(=O)N[C@H](C(=O)N[C@@H](CCC(N)=O)C(=O)N[C@H](C(=O)N[C@@H](CCCCN)C(=O)N[C@H](C(=O)N[C@H](C(=O)N[C@@H](CC(=O)O)C(=O)O)[C@@H](C)O)[C@@H](C)CC)[C@@H](C)O)[C@@H](C)CC [teduglutide]
GFR Change from Baseline, Mean (SD) (0.05 mg/kg/day, DW24): 3.7 (12.81) | GFR Change from Baseline, Median (0.05 mg/kg/day, DW24): 1.7 | GFR, Mean (SD) (0.05 mg/kg/day, DW24): 89.7 (41.28) | GFR, Median (0.05 mg/kg/day, DW24): 78.1 | UREA NITROGEN Change from Baseline, Mean (SD) (0.05 mg/kg/day, DW24): −0.6 (2.02) | UREA NITROGEN Change from Baseline, Median (0.05 mg/kg/day, DW24): −0.7 | UREA NITROGEN, Mean (SD) (0.05 mg/kg/day, DW24): 5.0 (1.88) | UREA NITROGEN, Median (0.05 mg/kg/day, DW24): 4.9 | CREATININE (RATE BLANKED), Median (0.05 mg/kg/day, DW24): 80 µmol/L | CREATININE (RATE BLANKED) Change from Baseline, Mean (SD) (0.10 mg/kg/day, DW4): −1.8 (10.49) | CREATININE (RATE BLANKED) Change from Baseline, Median (0.10 mg/kg/day, DW4): −0.5 | CREATININE (RATE BLANKED), Mean (SD) (0.10 mg/kg/day, DW4): 81.0 (21.62) | GFR Change from Baseline, Mean (SD) (0.10 mg/kg/day, DW4): 3.6 (11.81) | GFR Change from Baseline, Median (0.10 mg/kg/day, DW4): 3.1 | GFR, Mean (SD) (0.10 mg/kg/day, DW4): 80.3 (25.98) | GFR, Median (0.10 mg/kg/day, DW4): 75.6 | UREA NITROGEN Change from Baseline, Mean (SD) (0.10 mg/kg/day, DW4): 0.3 (1.22) | UREA NITROGEN Change from Baseline, Median (0.10 mg/kg/day, DW4): 0.2 | UREA NITROGEN, Mean (SD) (0.10 mg/kg/day, DW4): 6.4 (2.19) | UREA NITROGEN, Median (0.10 mg/kg/day, DW4): 6.3 | CREATININE (RATE BLANKED), Median (0.10 mg/kg/day, DW4): 83 µmol/L | CREATININE (RATE BLANKED) Change from Baseline, Mean (SD) (0.10 mg/kg/day, DW8): 1.2 (10.40) | CREATININE (RATE BLANKED) Change from Baseline, Median (0.10 mg/kg/day, DW8): 0.0 | CREATININE (RATE BLANKED), Mean (SD) (0.10 mg/kg/day, DW8): 84.2 (21.41) | GFR Change from Baseline, Mean (SD) (0.10 mg/kg/day, DW8): 0.6 (10.87) | GFR Change from Baseline, Median (0.10 mg/kg/day, DW8): 0.2 | GFR, Mean (SD) (0.10 mg/kg/day, DW8): 77.9 (25.63) | GFR, Median (0.10 mg/kg/day, DW8): 76.9 | UREA NITROGEN Change from Baseline, Mean (SD) (0.10 mg/kg/day, DW8): 0.2 (1.20) | UREA NITROGEN Change from Baseline, Median (0.10 mg/kg/day, DW8): 0.1 | UREA NITROGEN, Mean (SD) (0.10 mg/kg/day, DW8): 6.4 (2.00) | UREA NITROGEN, Median (0.10 mg/kg/day, DW8): 6.4 | CREATININE (RATE BLANKED), Median (0.10 mg/kg/day, DW8): 86 µmol/L | CREATININE (RATE BLANKED) Change from Baseline, Mean (SD) (0.10 mg/kg/day, DW12): 2.8 (12.77) | CREATININE (RATE BLANKED) Change from Baseline, Median (0.10 mg/kg/day, DW12): 6.5 | CREATININE (RATE BLANKED), Mean (SD) (0.10 mg/kg/day, DW12): 86.4 (25.37) | GFR Change from Baseline, Mean (SD) (0.10 mg/kg/day, DW12): 0.2 (15.54) | GFR Change from Baseline, Median (0.10 mg/kg/day, DW12): −0.5 | GFR, Mean (SD) (0.10 mg/kg/day, DW12): 77.3 (25.57) | GFR, Median (0.10 mg/kg/day, DW12): 68.7 | UREA NITROGEN Change from Baseline, Mean (SD) (0.10 mg/kg/day, DW12): 0.1 (1.47) | UREA NITROGEN Change from Baseline, Median (0.10 mg/kg/day, DW12): 0.0 | UREA NITROGEN, Mean (SD) (0.10 mg/kg/day, DW12): 6.3 (2.08) | UREA NITROGEN, Median (0.10 mg/kg/day, DW12): 5.9 | CREATININE (RATE BLANKED), Median (0.10 mg/kg/day, DW12): 84.5 µmol/L | CREATININE (RATE BLANKED) Change from Baseline, Mean (SD) (0.10 mg/kg/day, DW16): 0.6 (11.86) | CREATININE (RATE BLANKED) Change from Baseline, Median (0.10 mg/kg/day, DW16): 0.0 | CREATININE (RATE BLANKED), Mean (SD) (0.10 mg/kg/day, DW16): 84.2 (21.85) | GFR Change from Baseline, Mean (SD) (0.10 mg/kg/day, DW16): 1.1 (13.73) | GFR Change from Baseline, Median (0.10 mg/kg/day, DW16): 1.1 | GFR, Mean (SD) (0.10 mg/kg/day, DW16): 78.3 (23.12) | GFR, Median (0.10 mg/kg/day, DW16): 77.5 | UREA NITROGEN Change from Baseline, Mean (SD) (0.10 mg/kg/day, DW16): −0.2 (1.47) | UREA NITROGEN Change from Baseline, Median (0.10 mg/kg/day, DW16): 0.0 | UREA NITROGEN, Mean (SD) (0.10 mg/kg/day, DW16): 6.0 (1.86) | UREA NITROGEN, Median (0.10 mg/kg/day, DW16): 6.1 | CREATININE (RATE BLANKED), Median (0.10 mg/kg/day, DW16): 87.5 µmol/L | CREATININE (RATE BLANKED) Change from Baseline, Mean (SD) (0.10 mg/kg/day, DW20): 2.6 (12.05) | CREATININE (RATE BLANKED) Change from Baseline, Median (0.10 mg/kg/day, DW20): 0.0 | CREATININE (RATE BLANKED), Mean (SD) (0.10 mg/kg/day, DW20): 86.6 (20.44) | GFR Change from Baseline, Mean (SD) (0.10 mg/kg/day, DW20): −0.6 (16.16) | GFR Change from Baseline, Median (0.10 mg/kg/day, DW20): 1.5 | GFR, Mean (SD) (0.10 mg/kg/day, DW20): 77.3 (26.45)
